Legend:
rat M1 mAChR = target: T1, rat M1 mAChR (Rattus norvegicus, UniProt P08482); assay: [3H]NMS equilibrium binding in whole CHO-rM1 cells; settings: rM1, [3H]NMS binding
T1 construct: host or cells: FlpIn CHO cells (Invitrogen)
T1 sequence (P08482 1-460): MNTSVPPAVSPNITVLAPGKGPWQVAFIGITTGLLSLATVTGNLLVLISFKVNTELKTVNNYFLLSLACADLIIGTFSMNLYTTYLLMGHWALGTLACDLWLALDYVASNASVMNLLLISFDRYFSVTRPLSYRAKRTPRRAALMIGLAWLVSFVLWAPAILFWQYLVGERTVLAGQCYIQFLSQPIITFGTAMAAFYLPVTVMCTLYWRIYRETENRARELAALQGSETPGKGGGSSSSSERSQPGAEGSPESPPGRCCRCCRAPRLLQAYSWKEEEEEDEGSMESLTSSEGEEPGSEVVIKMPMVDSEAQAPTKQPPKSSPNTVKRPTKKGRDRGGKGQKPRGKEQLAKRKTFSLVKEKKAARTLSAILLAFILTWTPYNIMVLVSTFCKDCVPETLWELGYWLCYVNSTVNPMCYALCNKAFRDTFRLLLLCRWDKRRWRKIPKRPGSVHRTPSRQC
Description: Rat mAChR subtypes (rM1–rM5; Origene) and human cannabinoid 1 receptor (hCB1; ref. [24]) constructs were isogenically integrated into FlpIn CHO cells (Invitrogen) and cells were selected in the presence of […] hygromycin B at 37 °C, 5% CO2, as previously described for the human M1 mAChR [25]. All cells were sub-cultured and seeded as previously described for the CHO-hM5 cells.
(§1) [^3H]NMS equilibrium binding assays in CHO-rM1 to CHO-rM5 cells were performed as previously described for CHO-hM5 cells. For [^35S]GTPγS binding, CHO-rM2 and CHO-rM4 cell membranes were prepared as described in Supplementary information. Membrane [^35S]GTPγS binding was performed as described in ref [26]., except GDP and [^35S]GTPγS concentrations were 1 μM and 0.3 nM, respectively. [^3H](+)-pentazocine binding was performed as described in ref. [27].

σ1 receptor = target: T2, σ1 receptor (Mus musculus, UniProt O55242); assay: [3H](+)-pentazocine binding in mouse brain homogenates; settings: ML375 at concentrations up to 10 μM
T2 construct: from tissue; host or cells: mouse brain homogenates
T2 sequence (O55242 whole entry): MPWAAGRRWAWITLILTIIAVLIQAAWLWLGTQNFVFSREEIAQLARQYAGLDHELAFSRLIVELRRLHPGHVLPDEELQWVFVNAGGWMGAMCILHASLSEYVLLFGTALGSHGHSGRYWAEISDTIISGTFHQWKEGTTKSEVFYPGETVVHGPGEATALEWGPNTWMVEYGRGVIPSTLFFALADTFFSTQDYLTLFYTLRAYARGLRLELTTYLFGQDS
Description: as §1
Sigma-1 data are expressed as a percentage of specific [^3H]-(+)-pentazocine binding; ERK1/2 phosphorylation data are expressed percentage of the response to 10% FBS. Data represent the mean ± S.E.M. of 5-7 independent experiments performed in duplicate or triplicate.

[1] = tested on: ethanol-preferring (iP) rats; assay: Operant ethanol self-administration, oral dosing; format: in vivo, rat
Excerpt: Male iP rats (n = 14) were trained to self-administer 10% (v/v) ethanol via lever presses under FR3 operant conditions for approximately 12 weeks, in the presence of a 1-s light conditioned stimulus (CS+) occurring when the ethanol solution was delivered and an olfactory cue (S+ cue; one drop of vanilla essence, placed directly below the ethanol-paired (active) lever), as previously described, followed by surgery and testing. […] Rats were then given 7 days of ethanol self-administration before receiving the alternate treatment in a counterbalanced manner. For full details refer to Supplementary material.

[2] = tested on: ethanol-preferring (iP) rats; assay: Cue-induced reinstatement of ethanol seeking; format: in vivo, rat; settings: 3 × 30 mg/kg p.o.
Description: A separate cohort of rats (n = 11) underwent 12 weeks of operant ethanol (10% v/v) self-administration followed by extinction training, where lever presses had no programmed consequences. Extinction occurred in the absence of CS+ and S+ cues. […] Subsequently, rats were tested for cue-induced reinstatement by re-introduction of the ethanol-paired CS+ and S+ cues, but in the absence of reward delivery. Rats were then re-extinguished and submitted to a second reinstatement session with the counterbalanced treatment.

`O=C(c1ccc(F)c(F)c1)N1CCN2C(=O)c3ccccc3[C@@]12c1ccc(Cl)cc1` [ML375, (S)-9b-(4-chlorophenyl)-1-(3,4-difluorobenzoyl)-2,3-dihydro-1H-imidazo[2,1-a]isoi ndol-5(9bH)-one] was tested, and the “effect on ACh affinity” value (rat M1 mAChR) was “no significant effects”, the “effect on [3H](+)-pentazocine binding” value (σ1 receptor) was “no apparent effect” and the “latency to first water response vs vehicle” value ([1]; 30 mg/kg p.o. at 3 h, 11 h and 27 h prior to testing, P = 0.037) was “extends the latency”. The “ethanol responding vs vehicle” value ([1]; 30 mg/kg p.o. at 27 h, 11 h and 3 h prior to test, 10% ethanol, FR3, P = 0.0015) was “significantly reduced ethanol responding”, the “responding for water vs vehicle” value ([1]; 30 mg/kg p.o. at 27 h, 11 h and 3 h prior to test, P = 0.98) was “no difference” and the “latency to first ethanol reward vs vehicle” value ([1]; 30 mg/kg p.o., P = 0.73) was “no difference”. For the same compound, the “cue-induced reinstatement of ethanol seeking (active lever) vs vehicle” value ([2]; P = 0.015) was “significantly attenuated” and the “responding for the previously water-paired lever vs vehicle” value ([2]; P > 0.99) was “no differences”.

— publication PMC5983544, “Muscarinic M5 receptors modulate ethanol seeking in rats” (Neuropsychopharmacology, 2018)
